Molecular target: KRas G12D (Homo sapiens (Human), UniProt P01116, G12D)
Assay: KRas G12D Binding Assay (TR-FRET displacement of Cy5 labelled tracer)
Conditions: GDP-loaded KRAS G12D (amino acids 1:169), 60 minute incubation at 22° C.
Procedure: After a 60 minute incubation at 22° C., the reaction was measured using a PerkinElmer EnVision multimode plate reader via TR-FRET dual wavelength detection, and the percent of control (POC) calculated using a ratiometric emission factor. […] The POC values were fit to a 4-parameter logistic curve and the IC50 value was determined as the concentration where the curve crosses 50 POC.
ND stands for “not determined.”

Sequence of KRas G12D (P01116 other isoform, or with tags, fused parts or gaps G12D): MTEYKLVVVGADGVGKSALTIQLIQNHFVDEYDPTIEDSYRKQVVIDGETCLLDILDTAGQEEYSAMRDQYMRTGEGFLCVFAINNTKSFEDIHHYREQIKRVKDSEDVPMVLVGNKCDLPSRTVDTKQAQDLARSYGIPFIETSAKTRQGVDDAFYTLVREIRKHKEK

Cc1cc(-c2ncc3c(N4CC5CCC(C4)N5)nc(OC[C@@]45CCCN4C[C@H](F)C5)nc3c2F)c2cn[nH]c2c1 (stereo in doubt) [Example 391, 4-((1R,5S)-3,8-diazabicyclo[3.2.1]octan-3-yl)-8-fluoro-2-((2-fluorotetrahydro-1H-pyrrolizin-7a(5H)-yl)methoxy)-7-(6-methyl-1H-indazol-4-yl)pyrido[4,3-d]pyrimidine]
IC50: 662 nM

CC(C)c1ccc(O)cc1-c1ncc2c(N3CC4CCC(C3)N4)nc(OC[C@@]34CCCN3C[C@H](F)C4)nc2c1F (stereo in doubt) [Example 399, 3-(4-((1R,5S)-3,8-diazabicyclo[3.2.1]octan-3-yl)-8-fluoro-2-((2-fluorotetrahydro-1H-pyrrolizin-7a(5H)-yl)methoxy)pyrido[4,3-d]pyrimidin-7-yl)-4-isopropylphenol]
IC50: 2.7 nM

Cc1c(Cl)cc2[nH]ncc2c1-c1ncc2c(N3CC4CCC(C3)N4)nc(OC[C@@]34CCCN3C[C@H](F)C4)nc2c1F (stereo in doubt) [Example 401, 4-((1R,5S)-3,8-diazabicyclo[3.2.1]octan-3-yl)-7-(6-chloro-5-methyl-1H-indazol-4-yl)-8-fluoro-2-((2-fluorotetrahydro-1H-pyrrolizin-7a(5H)-yl)methoxy)pyrido[4,3-d]pyrimidine]
IC50: 2.8 nM

CC(C)(O)c1ccccc1-c1ncc2c(N3CC4CCC(C3)N4)nc(OC[C@@]34CCCN3C[C@H](F)C4)nc2c1F (stereo in doubt) [Example 402, 2-(2-(4-((1R,5S)-3,8-diazabicyclo[3.2.1]octan-3-yl)-8-fluoro-2-((2-fluorotetrahydro-1H-pyrrolizin-7a(5H)-yl)methoxy)pyrido[4,3-d]pyrimidin-7-yl)phenyl)propan-2-ol]
IC50: 8020 nM

CO[C@H]1CN2CCC[C@]2(COc2nc(N3CC4CCC(C3)N4)c3cnc(-c4cc(O)cc5cccc(F)c45)c(F)c3n2)C1 (stereo in doubt) [Example 406, 4-(4-((1R,5S)-3,8-diazabicyclo[3.2.1]octan-3-yl)-8-fluoro-2-((2-methoxytetrahydro-1H-pyrrolizin-7a(5H)-yl)methoxy)pyrido[4,3-d]pyrimidin-7-yl)-5-fluoronaphthalen-2-ol]
IC50: 0.9 nM

CC(C)(F)c1ccccc1-c1ncc2c(N3CC4CCC(C3)N4)nc(OC[C@@]34CCCN3C[C@H](F)C4)nc2c1F (stereo in doubt) [Example 407, 4-((1R,5S)-3,8-diazabicyclo[3.2.1]octan-3-yl)-8-fluoro-7-(2-(2-fluoropropan-2-yl)phenyl)-2-((2-fluorotetrahydro-1H-pyrrolizin-7a(5H)-yl)methoxy)pyrido[4,3-d]pyrimidine]
IC50: 560 nM

N#Cc1ccccc1-c1ncc2c(N3CC4CCC(C3)N4)nc(OC[C@@]34CCCN3C[C@H](F)C4)nc2c1F (stereo in doubt) [Example 409, 2-(4-((1R,5S)-3,8-diazabicyclo[3.2.1]octan-3-yl)-8-fluoro-2-((2-fluorotetrahydro-1H-pyrrolizin-7a(5H)-yl)methoxy)pyrido[4,3-d]pyrimidin-7-yl)benzonitrile]
IC50: 2230 nM

C#Cc1cccc2cc(O)cc(-c3ncc4c(N5CC6CCC(C5)N6)nc(OC[C@@]56CCCN5C[C@H](OC)C6)nc4c3F)c12 (stereo in doubt) [Example 410, 4-(4-((1R,5S)-3,8-diazabicyclo[3.2.1]octan-3-yl)-8-fluoro-2-((2-methoxytetrahydro-1H-pyrrolizin-7a(5H)-yl)methoxy)pyrido[4,3-d]pyrimidin-7-yl)-5-ethynylnaphthalen-2-ol]
IC50: 1 nM

Fc1c(-c2ccccc2Cl)ncc2c(N3CC4CCC(C3)N4)nc(OC[C@@]34CCCN3C[C@H](F)C4)nc12 (stereo in doubt) [Example 414, 4-((1R,5S)-3,8-diazabicyclo[3.2.1]octan-3-yl)-7-(2-chlorophenyl)-8-fluoro-2-((2-fluorotetrahydro-1H-pyrrolizin-7a(5H)-yl)methoxy)pyrido[4,3-d]pyrimidine]
IC50: 873 nM

Fc1c(-c2cnccc2C(F)(F)F)ncc2c(N3CC4CCC(C3)N4)nc(OC[C@@]34CCCN3C[C@H](F)C4)nc12 (stereo in doubt) [Example 415, 4-((1R,5S)-3,8-diazabicyclo[3.2.1]octan-3-yl)-8-fluoro-2-((2-fluorotetrahydro-1H-pyrrolizin-7a(5H)-yl)methoxy)-7-(4-(trifluoromethyl)pyridin-3-yl)pyrido[4,3-d]pyrimidine]
IC50: 2580 nM

CC(C)Oc1ccccc1-c1ncc2c(N3CC4CCC(C3)N4)nc(OC[C@@]34CCCN3C[C@H](F)C4)nc2c1F (stereo in doubt) [Example 416, 4-((1R,5S)-3,8-diazabicyclo[3.2.1]octan-3-yl)-8-fluoro-2-((2-fluorotetrahydro-1H-pyrrolizin-7a(5H)-yl)methoxy)-7-(2-isopropoxyphenyl)pyrido[4,3-d]pyrimidine]
IC50: 1950 nM

CC(C)Cc1ccccc1-c1ncc2c(N3CC4CCC(C3)N4)nc(OC[C@@]34CCCN3C[C@H](F)C4)nc2c1F (stereo in doubt) [Example 417, 4-((1R,5S)-3,8-diazabicyclo[3.2.1]octan-3-yl)-8-fluoro-2-((2-fluorotetrahydro-1H-pyrrolizin-7a(5H)-yl)methoxy)-7-(2-isobutylphenyl)pyrido[4,3-d]pyrimidine]
IC50: 595 nM

CN1CCC[C@H]1COc1nc(N2CC3C[C@@H](O)C(C2)N3)c2cnc(-c3cc(O)cc4ccccc34)c(F)c2n1 (stereo partly drawn) [Example 31, 3-(8-fluoro-7-(3-hydroxynaphthalen-1-yl)-2-(((S)-1-methylpyrrolidin-2-yl)methoxy)pyrido[4,3-d]pyrimidin-4-yl)-3,8-diazabicyclo[3.2.1]octan-6-ol]
IC50: 1.6 nM

O[C@@H]1C[C@@H]2CN(c3nc(OCCc4ccc(F)cn4)nc4c(F)c(-c5cccc6cccc(Cl)c56)ncc34)C[C@H]1N2 [Example 32, (1R,5R,6R)-3-(7-(8-chloronaphthalen-1-yl)-8-fluoro-2-(2-(5-fluoropyridin-2-yl)ethoxy)pyrido[4,3-d]pyrimidin-4-yl)-3,8-diazabicyclo[3.2.1]octan-6-ol]
IC50: 2140 nM

Oc1cc(-c2ncc3c(N4C[C@H]5CC[C@@H](C4)N5)nc(OCC45CCCN4CCC5)nc3c2F)c2c(Cl)cccc2c1 [Example 36, 4-(4-((1R,5S)-3,8-diazabicyclo[3.2.1]octan-3-yl)-8-fluoro-2-((tetrahydro-1H-pyrrolizin-7a(5H)-yl)methoxy)pyrido[4,3-d]pyrimidin-7-yl)-5-chloronaphthalen-2-ol]
IC50: 0.4 nM

O=Cc1cc(CCOc2nc(N3C[C@H]4CC[C@@H](C3)N4)c3cnc(-c4cccc5cccc(Cl)c45)c(F)c3n2)ccc1O [Example 62, 5-(2-((4-((1R,5S)-3,8-diazabicyclo[3.2.1]octan-3-yl)-7-(8-chloronaphthalen-1-yl)-8-fluoropyrido[4,3-d]pyrimidin-2-yl)oxy)ethyl)-2-hydroxybenzaldehyde]
IC50: 8410 nM

CN1CCC[C@H]1COc1nc(N2C[C@H]3CC[C@@H](C2)N3)c2cnc(-c3cc(O)cc4cccc(Cl)c34)c(F)c2n1 [Example 63, 4-(4-((1R,5S)-3,8-diazabicyclo[3.2.1]octan-3-yl)-8-fluoro-2-(((S)-1-methylpyrrolidin-2-yl)methoxy)pyrido[4,3-d]pyrimidin-7-yl)-5-chloronaphthalen-2-ol]
IC50: 0.4 nM

CC(C)(C)[Si](C)(C)OCC1CCC2(COc3nc(N4C[C@H]5CC[C@@H](C4)N5)c4cnc(-c5cccc6cccc(Cl)c56)c(F)c4n3)CCCN12 (stereo partly drawn) [Example 64, 4-((1R,5S)-3,8-diazabicyclo[3.2.1]octan-3-yl)-2-((3-(((tert-butyldimethylsilyl)oxy)methyl)tetrahydro-1H-pyrrolizin-7a(5H)-yl)methoxy)-7-(8-chloronaphthalen-1-yl)-8-fluoropyrido[4,3-d]pyrimidine]
IC50: 3.3 nM

O=C1CCC2(COc3nc(N4C[C@H]5CC[C@@H](C4)N5)c4cnc(-c5cccc6cccc(Cl)c56)c(F)c4n3)CCCN12 (stereo partly drawn) [Example 83, 7a-(((4-((1R,5S)-3,8-diazabicyclo[3.2.1]octan-3-yl)-7-(8-chloronaphthalen-1-yl)-8-fluoropyrido[4,3-d]pyrimidin-2-yl)oxy)methyl)hexahydro-3H-pyrrolizin-3-one bis(2,2,2-trifluoroacetate)]
IC50: 8690 nM

Fc1c(-c2cccc3cccc(Cl)c23)ncc2c(N3C[C@H]4CC[C@@H](C3)N4)nc(OCC34CCCN3CC(F)(F)C4)nc12 (stereo partly drawn) [Example 93, 4-((1R,5S)-3,8-diazabicyclo[3.2.1]octan-3-yl)-7-(8-chloronaphthalen-1-yl)-2-((2,2-difluorotetrahydro-1H-pyrrolizin-7a(5H)-yl)methoxy)-8-fluoropyrido[4,3-d]pyrimidine bis(2,2,2-trifluoroacetate)]
IC50: 105 nM

Fc1ccc2cccc(-c3ncc4c(N5C[C@H]6CC[C@@H](C5)N6)nc(OCC56CCCN5CCC6)nc4c3F)c2c1Cl [Example 98, 4-((1R,5S)-3,8-diazabicyclo[3.2.1]octan-3-yl)-7-(8-chloro-7-fluoronaphthalen-1-yl)-8-fluoro-2-((tetrahydro-1H-pyrrolizin-7a(5H)-yl)methoxy)pyrido[4,3-d]pyrimidine bis(2,2,2-trifluoroacetate)]
IC50: 1 nM

CC1(N)CN(c2nc(N3C[C@H]4CC[C@@H](C3)N4)c3cnc(-c4cccc5cccc(Cl)c45)c(F)c3n2)C1 [Example 125, 1-(4-((1R,5S)-3,8-diazabicyclo[3.2.1]octan-3-yl)-7-(8-chloronaphthalen-1-yl)-8-fluoropyrido[4,3-d]pyrimidin-2-yl)-3-methylazetidin-3-amine]
IC50: 668 nM

CCC1(N)CN(c2nc(N3C[C@H]4CC[C@@H](C3)N4)c3cnc(-c4cccc5cccc(Cl)c45)c(F)c3n2)C1 [Example 128, 1-(4-((1R,5S)-3,8-diazabicyclo[3.2.1]octan-3-yl)-7-(8-chloronaphthalen-1-yl)-8-fluoropyrido[4,3-d]pyrimidin-2-yl)-3-ethylazetidin-3-amine]
IC50: 501 nM
